Values after ≈ are worked out from the molar mass of the structure shown. Where two headings read alike, the source gives them in different places. Marks after values point to notes of the source that are not given here.
Tests used:
APEC O78 [1] = assay type: cell-based, avian pathogenic Escherichia coli (APEC); details: for MBC relative to MIC: APEC O78; for MBC / MIC: APEC O78, M63 media
APEC O1 = assay type: cell-based, avian pathogenic Escherichia coli (APEC); details: APEC O1, M63 media; MIC/MBC
APEC O2 = assay type: cell-based, avian pathogenic Escherichia coli (APEC); details: APEC O2, M63 media; MIC/MBC
APEC O8 = assay type: cell-based, avian pathogenic Escherichia coli (APEC); details: APEC O8, M63 media; MIC/MBC
APEC O15 = assay type: cell-based, avian pathogenic Escherichia coli (APEC); details: APEC O15, M63 media; MIC/MBC
APEC O18 = assay type: cell-based, avian pathogenic Escherichia coli (APEC); details: APEC O18, M63 media; MIC/MBC
APEC O35 = assay type: cell-based, avian pathogenic Escherichia coli (APEC); details: APEC O35, M63 media; MIC/MBC
APEC O115 = assay type: cell-based, avian pathogenic Escherichia coli (APEC); details: APEC O115, M63 media; MIC/MBC
APEC O109 = assay type: cell-based, avian pathogenic Escherichia coli (APEC); details: APEC O109, M63 media; MIC/MBC
APEC O78-53 = assay type: cell-based, avian pathogenic Escherichia coli (APEC); details: APEC O78-53, M63 media; MIC/MBC
APEC O1-63 = assay type: cell-based, avian pathogenic Escherichia coli (APEC); details: APEC O1-63, M63 media; MIC/MBC
APEC O2-211 = assay type: cell-based, avian pathogenic Escherichia coli (APEC); details: APEC O2-211, M63 media; MIC/MBC
[2] = system: Shiga toxin-producing (STEC) O157 and O26 strains; assay type: cell-based, E. coli; details: 100 µM, M63 media
[3] = system: biofilm embedded APEC O78; assay: MBEC High-throughput assay; assay type: cell-based, avian pathogenic Escherichia coli (APEC); details: biofilm embedded APEC O78; superscript = multiple of MIC (footnote)
APEC O78 [4] = assay: Confocal microscopy bacterial cytological profiling; assay type: cell-based, avian pathogenic Escherichia coli (APEC); details: 2X MBC
Protocol: Confocal and scanning electron microscopy. Confocal microscopy was used for bacterial cytological profiling (BCP) to identify the cellular pathways targeted by SMs as described previously. […] After incubation, treated cultures were centrifuged, washed, and resuspended in 100 μL PBS. […] Cultures were then centrifuged, washed, and resuspended in PBS to 1⁄10th volume of the original cultures.

APEC O78 [5] = assay: Loss of 260/280 nm absorbing materials assay; assay type: cell-based, avian pathogenic Escherichia coli (APEC); details: 2X MBC, 1 h, *P<0.05 vs DMSO; for Absorbance 260: 260 nm absorbing material in supernatant; for Absorbance 280: 280 nm absorbing material in supernatant
[6] = system: intracellular APEC O78 in Caco-2 cells; assay: Intracellular survival assay (cidal SMs); details: O78, Caco-2, 6 h treatment; superscript = multiple of MIC
[7] = system: intracellular APEC O78 in HD11 cells; assay: Intracellular survival assay (cidal SMs); details: O78, HD11, 6 h treatment; superscript = multiple of MIC
[8] = system: intracellular APEC O78 in THP-1 cells; assay: Intracellular survival assay (cidal SMs); details: O78, THP-1, 6 h treatment; superscript = multiple of MIC
[9] = system: intracellular APEC O2 in Caco-2 cells; assay: Intracellular survival assay (cidal SMs); details: O2, Caco-2, 6 h treatment; superscript = multiple of MIC
[10] = system: intracellular APEC O2 in HD11 cells; assay: Intracellular survival assay (cidal SMs); details: O2, HD11, 6 h treatment; superscript = multiple of MIC
[11] = system: intracellular APEC O2 in THP-1 cells; assay: Intracellular survival assay (cidal SMs); details: O2, THP-1, 6 h treatment; superscript = multiple of MIC
[12] = system: intracellular APEC O1 in Caco-2 cells; assay: Intracellular survival assay (cidal SMs); details: O1, Caco-2, 6 h treatment; superscript = multiple of MIC
[13] = system: intracellular APEC O1 in HD11 cells; assay: Intracellular survival assay (cidal SMs); details: O1, HD11, 6 h treatment; superscript = multiple of MIC
[14] = system: intracellular APEC O1 in THP-1 cells; assay: Intracellular survival assay (cidal SMs); details: O1, THP-1, 6 h treatment; superscript = multiple of MIC
Rif^r APEC O78 = assay: In vivo efficacy of growth inhibitors in APEC infected broiler chickens; details: for reduction of average APEC load in internal organs: average of liver, lung and kidney; for reduction of average APEC load in internal organs / reduction of APEC load, Heart / reduction of APEC load, Kidney / reduction of APEC load, Liver / reduction of APEC load, Lung: vs untreated control; for reduction of APEC induced mortality: oral gavage twice a day, 5 days, untreated mortality (58.34%) normalized to 100%; for Body weight gain (BWG): weight of live chickens before necropsy minus weight before treatment
[15] = cell prints MIC/MBC, listed as 1

What does the source list for `CC1CCCN(CCC(=O)c2ccc(Br)cc2)C1.Cl` (stereo not drawn) [SM1]?
MBC relative to MIC (APEC O78 [1]): identical to MIC; MBC (APEC O78 [1]; cell prints MIC/MBC): 200 µM; MBC (APEC O78 [1]; [15]): 200 µM; MIC (APEC O78 [1]; [15]): 200 µM; MBC (APEC O1): 250 µM; MIC (APEC O1): 200 µM; MBC (APEC O2): 200 µM; MIC (APEC O2): 200 µM; MBC (APEC O8): 200 µM; MIC (APEC O8): 200 µM; MBC (APEC O15): 250 µM; MIC (APEC O15): 200 µM; MBC (APEC O18): 200 µM; MIC (APEC O18): 200 µM; MBC (APEC O35): 200 µM; MIC (APEC O35): 200 µM; MBC (APEC O115): 200 µM; MIC (APEC O115): 200 µM; MBC (APEC O109): 200 µM; MIC (APEC O109): 200 µM; MBC (APEC O78-53): 200 µM; MIC (APEC O78-53): 200 µM; MBC (APEC O1-63): 250 µM; MIC (APEC O1-63): 200 µM; MBC (APEC O2-211): 200 µM; MIC (APEC O2-211): 200 µM; activity against STEC O157 and O26 strains [2]: not cidal; MBEC [3]: 400^d µM; cytological profile (confocal, FM4-64 / SYTO-9) (APEC O78 [4]): PG synthesis inhibitors; Absorbance 260 (APEC O78 [5]): 4.00*; Absorbance 280 (APEC O78 [5]): 3.08*; SMs intracellular APEC clearance concentration [6]: 200^a µM; SMs intracellular APEC clearance concentration [7]: 200^a µM; SMs intracellular APEC clearance concentration [8]: 200^a µM; SMs intracellular APEC clearance concentration [9]: >400 µM; SMs intracellular APEC clearance concentration [10]: 200^a µM; SMs intracellular APEC clearance concentration [11]: 200^a µM; SMs intracellular APEC clearance concentration [12]: >400 µM; SMs intracellular APEC clearance concentration [13]: 400^b µM; SMs intracellular APEC clearance concentration [14]: 400^b µM; reduction of average APEC load in internal organs (Rif^r APEC O78; heart): either exacerbated or did not reduce; reduction of APEC induced mortality (Rif^r APEC O78): 14.28%; reduction of APEC lesions severity (%), Air-sacs (airsacculitis) (Rif^r APEC O78; untreated control = 100%): -5.9%; reduction of APEC lesions severity (%), Heart (pericarditis) (Rif^r APEC O78; untreated control = 100%): 33.3%; reduction of APEC lesions severity (%), Liver (perihepatitis) (Rif^r APEC O78; untreated control = 100%): -20%; reduction of APEC load, Heart (Rif^r APEC O78): -1.8 log CFU/g of tissues; reduction of APEC load, Kidney (Rif^r APEC O78): -1.1 log CFU/g of tissues; reduction of APEC load, Liver (Rif^r APEC O78): -2.0 log CFU/g of tissues; reduction of APEC load, Lung (Rif^r APEC O78): -1.4 log CFU/g of tissues; Body weight gain (BWG) (Rif^r APEC O78): 165.62±69.17

`COc1cc(CNCCc2ccc3ccccc3c2)ccc1OCC(O)CN1CCCC1` (stereo not drawn) [SM2] was tested. Which “MBC relative to MIC” value (APEC O78 [1]) did it give?
Its value is “identical to MIC”.

What about the MIC (APEC O78 [1]; MIC/MBC) of the same compound?
The MIC was 100 µM (≈ 43.5 µg/mL).

And the MBC (APEC O78 [1]; cell prints MIC/MBC)?
The MBC was 100 µM (≈ 43.5 µg/mL).

What about the MBC (APEC O1) of the same compound?
The MBC was 250 µM (≈ 109 µg/mL).

What about the MIC (APEC O1) of the same compound?
Its MIC is 200 µM (≈ 86.9 µg/mL).

What about the MBC (APEC O2) of the same compound?
The MBC was 250 µM (≈ 109 µg/mL).

What about the MIC (APEC O2) of the same compound?
Its MIC is 200 µM (≈ 86.9 µg/mL).

And the MBC (APEC O8)?
Its MBC is 200 µM (≈ 86.9 µg/mL).

What about the MIC (APEC O8) of the same compound?
The MIC was 100 µM (≈ 43.5 µg/mL).

And the MBC (APEC O15)?
Its MBC is 100 µM (≈ 43.5 µg/mL).

What about the MIC (APEC O15) of the same compound?
Its MIC is 100 µM (≈ 43.5 µg/mL).

And the MBC (APEC O18)?
The MBC was 200 µM (≈ 86.9 µg/mL).

What about the MIC (APEC O18) of the same compound?
The MIC was 100 µM (≈ 43.5 µg/mL).

And the MBC (APEC O35)?
Its MBC is 200 µM (≈ 86.9 µg/mL).

What about the MIC (APEC O35) of the same compound?
The MIC was 100 µM (≈ 43.5 µg/mL).

And the MBC (APEC O115)?
Its MBC is 200 µM (≈ 86.9 µg/mL).

And the MIC (APEC O115)?
The MIC was 200 µM (≈ 86.9 µg/mL).

What about the MBC (APEC O109) of the same compound?
Its MBC is 200 µM (≈ 86.9 µg/mL).

And the MIC (APEC O109)?
Its MIC is 100 µM (≈ 43.5 µg/mL).

What about the MBC (APEC O78-53) of the same compound?
Its MBC is 200 µM (≈ 86.9 µg/mL).

What about the MIC (APEC O78-53) of the same compound?
The MIC was 100 µM (≈ 43.5 µg/mL).

And the MBC (APEC O1-63)?
Its MBC is 250 µM (≈ 109 µg/mL).

What about the MIC (APEC O1-63) of the same compound?
Its MIC is 200 µM (≈ 86.9 µg/mL).

And the MBC (APEC O2-211)?
The MBC was 100 µM (≈ 43.5 µg/mL).

What about the MIC (APEC O2-211) of the same compound?
The MIC was 100 µM (≈ 43.5 µg/mL).

What about the “activity against STEC O157 and O26 strains” value [2] of the same compound?
The value was “not cidal”.

What about the MBEC [3] of the same compound?
Its MBEC is 50^b µM.

What about the “cytological profile (confocal, FM4-64 / SYTO-9)” value (APEC O78 [4]) of the same compound?
Its value is “membrane pore formers”.

What about the “Absorbance 260” value (APEC O78 [5]) of the same compound?
The value was 3.71.

And the “Absorbance 280” value (APEC O78 [5])?
The value was 2.86*.

What about the “SMs intracellular APEC clearance concentration” value [6] of the same compound?
The value was 100^a µM.

And the “SMs intracellular APEC clearance concentration” value [7]?
The value was 100^a µM.

What about the “SMs intracellular APEC clearance concentration” value [8] of the same compound?
The value was 100^a µM.

And the “SMs intracellular APEC clearance concentration” value [9]?
Its value is >200 µM.

What about the “SMs intracellular APEC clearance concentration” value [10] of the same compound?
Its value is 200^b µM.

What about the “SMs intracellular APEC clearance concentration” value [11] of the same compound?
Its value is 100^a µM.

What about the “SMs intracellular APEC clearance concentration” value [12] of the same compound?
Its value is >200 µM.

And the “SMs intracellular APEC clearance concentration” value [13]?
Its value is 200b µM.

What about the “SMs intracellular APEC clearance concentration” value [14] of the same compound?
Its value is 200^b µM.

And the “reduction of average APEC load in internal organs” value (Rif^r APEC O78; heart)?
Its value is 1.3 logs.

And the cumulative lesions score (Rif^r APEC O78; liver, heart, lung and air-sacs, untreated 6.2)?
Its cumulative lesions score is 5.4.

What about the “reduction of APEC induced mortality” value (Rif^r APEC O78) of the same compound?
The value was 42.86%.

What about the “reduction of APEC lesions severity (%), Air-sacs (airsacculitis)” value (Rif^r APEC O78; untreated control = 100%) of the same compound?
The value was 17.7%.

And the “reduction of APEC lesions severity (%), Liver (perihepatitis)” value (Rif^r APEC O78; untreated control = 100%)?
Its value is 0%.

And the “reduction of APEC load, Heart” value (Rif^r APEC O78)?
Its value is 0.8 log CFU/g of tissues.

What about the “reduction of APEC load, Kidney” value (Rif^r APEC O78) of the same compound?
Its value is 1.8 log CFU/g of tissues.

And the “reduction of APEC load, Liver” value (Rif^r APEC O78)?
Its value is 1.2 log CFU/g of tissues.

What about the “reduction of APEC load, Lung” value (Rif^r APEC O78) of the same compound?
Its value is 1.5 log CFU/g of tissues.

And the “Body weight gain (BWG)” value (Rif^r APEC O78)?
Its value is 125.48±34.66^b.
